Assay results taken from the NIST ThermoML archive (doi:10.1016/j.jct.2006.07.022).

Experiment: xn = mol fraction of the nth substance listed
Conditions: 101 kPa, Liquid

CN(C)C=O [dimethylformamide] + Cc1ccccc1
Conditions	mass density [kg/m3]
293.15 K, x2 = 0	948.58
293.15 K, x2 = 0.0587	943.21
293.15 K, x2 = 0.0924	940.15
293.15 K, x2 = 0.1596	934.15
293.15 K, x2 = 0.2106	929.65
293.15 K, x2 = 0.2706	924.43
293.15 K, x2 = 0.3202	920.16
293.15 K, x2 = 0.3823	914.89
293.15 K, x2 = 0.4504	909.2
293.15 K, x2 = 0.5171	903.73
293.15 K, x2 = 0.5636	899.97
293.15 K, x2 = 0.7212	887.54
293.15 K, x2 = 0.7647	884.19
293.15 K, x2 = 0.8114	880.65
293.15 K, x2 = 0.8715	876.16
293.15 K, x2 = 0.9412	871.04
303.15 K, x2 = 0	939.46
303.15 K, x2 = 0.0451	935.32
303.15 K, x2 = 0.1012	930.23
303.15 K, x2 = 0.1674	924.31
303.15 K, x2 = 0.2151	920.11
303.15 K, x2 = 0.2855	913.98
303.15 K, x2 = 0.3484	908.59
303.15 K, x2 = 0.4188	902.65
303.15 K, x2 = 0.4876	896.96
303.15 K, x2 = 0.5508	891.8
303.15 K, x2 = 0.6134	886.77
303.15 K, x2 = 0.6745	881.95
303.15 K, x2 = 0.7512	876
303.15 K, x2 = 0.8121	871.36
303.15 K, x2 = 0.8614	867.66
303.15 K, x2 = 0.9318	862.47
313.15 K, x2 = 0	930.12
313.15 K, x2 = 0.051	925.45
313.15 K, x2 = 0.1112	920.02
313.15 K, x2 = 0.1984	912.27
313.15 K, x2 = 0.2511	907.67
313.15 K, x2 = 0.3147	902.18
313.15 K, x2 = 0.3784	896.76
313.15 K, x2 = 0.4322	892.26
313.15 K, x2 = 0.5053	886.23
313.15 K, x2 = 0.5721	880.8
313.15 K, x2 = 0.6427	875.17
313.15 K, x2 = 0.7077	870.09
313.15 K, x2 = 0.7812	864.43
313.15 K, x2 = 0.8419	859.84
313.15 K, x2 = 0.8932	856.01
313.15 K, x2 = 0.9588	851.2
323.15 K, x2 = 0	920.55
323.15 K, x2 = 0.044	916.54
323.15 K, x2 = 0.1062	910.94
323.15 K, x2 = 0.1721	905.1
323.15 K, x2 = 0.2314	899.91
323.15 K, x2 = 0.2985	894.12
323.15 K, x2 = 0.3647	888.5
323.15 K, x2 = 0.4215	883.74
323.15 K, x2 = 0.4874	878.3
323.15 K, x2 = 0.5484	873.34
323.15 K, x2 = 0.6014	869.09
323.15 K, x2 = 0.6647	864.08
323.15 K, x2 = 0.7314	858.9
323.15 K, x2 = 0.7951	854.03
323.15 K, x2 = 0.8654	848.74
323.15 K, x2 = 0.9321	843.83
333.15 K, x2 = 0	910.75
333.15 K, x2 = 0.0512	906.14
333.15 K, x2 = 0.112	900.72
333.15 K, x2 = 0.1784	894.89
333.15 K, x2 = 0.2351	889.98
333.15 K, x2 = 0.2985	884.55
333.15 K, x2 = 0.3514	880.08
333.15 K, x2 = 0.4122	875
333.15 K, x2 = 0.4841	869.09
333.15 K, x2 = 0.5451	864.14
333.15 K, x2 = 0.6015	859.64
333.15 K, x2 = 0.6641	854.71
333.15 K, x2 = 0.7321	849.44
333.15 K, x2 = 0.7951	844.64
333.15 K, x2 = 0.8621	839.62
333.15 K, x2 = 0.9245	835.02
343.15 K, x2 = 0	900.73
343.15 K, x2 = 0.0632	895.11
343.15 K, x2 = 0.1201	890.11
343.15 K, x2 = 0.1854	884.45
343.15 K, x2 = 0.2554	878.46
343.15 K, x2 = 0.3114	873.73
343.15 K, x2 = 0.3784	868.14
343.15 K, x2 = 0.4552	861.82
343.15 K, x2 = 0.5114	857.28
343.15 K, x2 = 0.5662	852.9
343.15 K, x2 = 0.6212	848.55
343.15 K, x2 = 0.6812	843.88
343.15 K, x2 = 0.7499	838.61
343.15 K, x2 = 0.8021	834.67
343.15 K, x2 = 0.8654	829.95
343.15 K, x2 = 0.9421	824.34
353.15 K, x2 = 0	890.48
353.15 K, x2 = 0.0451	886.53
353.15 K, x2 = 0.1023	881.55
353.15 K, x2 = 0.1654	876.13
353.15 K, x2 = 0.2215	871.36
353.15 K, x2 = 0.2865	865.91
353.15 K, x2 = 0.3412	861.36
353.15 K, x2 = 0.4012	856.44
353.15 K, x2 = 0.4687	850.98
353.15 K, x2 = 0.5214	846.76
353.15 K, x2 = 0.5841	841.82
353.15 K, x2 = 0.6474	836.89
353.15 K, x2 = 0.7142	831.77
353.15 K, x2 = 0.7784	826.93
353.15 K, x2 = 0.8451	821.96
353.15 K, x2 = 0.9012	817.86
